Test results reported in paper PMC8313270 (Microbial Biotechnology, 2021).

Tested on: StdA-His
Experiment: toxoflavin degradation assay, Lineweaver-Burk plot
Type: biochemical, Sphingomonas adhaesiva
Details: 50 mM sodium phosphate pH 8.0, 5 mM DTT, 28°C, no metal added

Compound: Cn1ncnc2c(=O)n(C)c(=O)nc1-2 [toxoflavin, 1,6‐dimethylpyrimido[5,4‐e]‐1,2,4‐triazine‐5,7(1H,6H) dione]
- Km: 65 µM
